ChEMBL document CHEMBL1944561, “Discovery and SAR exploration of a novel series of imidazo[4,5-b]pyrazin-2-ones as potent and selective mTOR kinase inhibitors” (Bioorg Med Chem Lett, 2011)

Experiments:
[1] = molecular target: RAC-alpha serine/threonine-protein kinase (Homo sapiens) (UniProt P31749); assay: Inhibition of PKB-alpha assessed as activity remaining at 10 uM
[2] = molecular target: T1, Protein kinase C zeta type (Homo sapiens) (UniProt Q05513); assay: Inhibition of PKC-zeta assessed as activity remaining at 10 uM
T1 sequence (whole entry): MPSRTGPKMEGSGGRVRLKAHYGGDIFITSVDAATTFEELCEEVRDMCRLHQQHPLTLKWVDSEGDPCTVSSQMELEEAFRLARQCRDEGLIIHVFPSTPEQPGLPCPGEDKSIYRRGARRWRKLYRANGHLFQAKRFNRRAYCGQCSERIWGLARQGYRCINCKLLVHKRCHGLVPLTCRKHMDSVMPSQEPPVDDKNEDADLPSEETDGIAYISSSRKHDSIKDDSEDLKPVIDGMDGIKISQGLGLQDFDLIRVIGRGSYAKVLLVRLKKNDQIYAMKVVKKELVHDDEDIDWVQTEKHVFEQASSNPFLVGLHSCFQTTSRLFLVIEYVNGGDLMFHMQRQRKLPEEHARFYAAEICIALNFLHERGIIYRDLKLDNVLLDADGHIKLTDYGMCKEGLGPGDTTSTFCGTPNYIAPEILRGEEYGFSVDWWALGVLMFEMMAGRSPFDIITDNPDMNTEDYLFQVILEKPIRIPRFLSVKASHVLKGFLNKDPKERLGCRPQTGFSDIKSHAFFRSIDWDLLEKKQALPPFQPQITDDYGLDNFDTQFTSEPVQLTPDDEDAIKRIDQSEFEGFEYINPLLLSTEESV

[3] = molecular target: Mitogen-activated protein kinase 1 (Homo sapiens) (UniProt P28482); assay: Inhibition of MAPK1 assessed as activity remaining at 10 uM
[4] = molecular target: T2, Ephrin type-B receptor 4 (Homo sapiens) (UniProt P54760); assay: Inhibition of EphB4 assessed as activity remaining at 10 uM
T2 sequence (whole entry): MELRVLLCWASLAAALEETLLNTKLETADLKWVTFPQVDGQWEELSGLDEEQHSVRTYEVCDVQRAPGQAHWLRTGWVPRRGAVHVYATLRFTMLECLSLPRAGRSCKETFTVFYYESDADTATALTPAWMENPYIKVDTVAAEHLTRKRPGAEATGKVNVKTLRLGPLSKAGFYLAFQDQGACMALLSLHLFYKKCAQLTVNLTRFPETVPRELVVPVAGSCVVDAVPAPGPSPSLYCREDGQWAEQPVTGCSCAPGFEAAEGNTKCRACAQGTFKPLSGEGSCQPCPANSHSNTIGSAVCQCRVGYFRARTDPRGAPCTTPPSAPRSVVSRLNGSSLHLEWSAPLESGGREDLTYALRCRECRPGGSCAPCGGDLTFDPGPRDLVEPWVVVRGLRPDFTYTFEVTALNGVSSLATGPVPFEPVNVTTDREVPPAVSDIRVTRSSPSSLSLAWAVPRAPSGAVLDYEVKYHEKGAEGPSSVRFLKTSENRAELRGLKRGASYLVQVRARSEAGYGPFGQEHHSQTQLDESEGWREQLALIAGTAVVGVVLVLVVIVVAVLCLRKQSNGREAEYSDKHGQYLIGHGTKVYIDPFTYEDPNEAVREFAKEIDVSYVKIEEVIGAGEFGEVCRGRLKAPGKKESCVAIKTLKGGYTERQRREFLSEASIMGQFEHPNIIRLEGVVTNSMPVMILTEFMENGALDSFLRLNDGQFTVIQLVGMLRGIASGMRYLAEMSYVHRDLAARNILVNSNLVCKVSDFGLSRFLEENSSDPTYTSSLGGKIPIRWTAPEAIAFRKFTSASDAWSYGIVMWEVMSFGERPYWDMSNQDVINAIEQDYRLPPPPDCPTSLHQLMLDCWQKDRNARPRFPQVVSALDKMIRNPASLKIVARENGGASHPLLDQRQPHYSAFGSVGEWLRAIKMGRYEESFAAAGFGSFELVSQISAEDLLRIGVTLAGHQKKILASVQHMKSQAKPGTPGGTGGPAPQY

[5] = molecular target: T3, Serine/threonine-protein kinase Chk1 (Homo sapiens) (UniProt O14757); assay: Inhibition of CHK1 assessed as activity remaining at 10 uM
T3 sequence (whole entry): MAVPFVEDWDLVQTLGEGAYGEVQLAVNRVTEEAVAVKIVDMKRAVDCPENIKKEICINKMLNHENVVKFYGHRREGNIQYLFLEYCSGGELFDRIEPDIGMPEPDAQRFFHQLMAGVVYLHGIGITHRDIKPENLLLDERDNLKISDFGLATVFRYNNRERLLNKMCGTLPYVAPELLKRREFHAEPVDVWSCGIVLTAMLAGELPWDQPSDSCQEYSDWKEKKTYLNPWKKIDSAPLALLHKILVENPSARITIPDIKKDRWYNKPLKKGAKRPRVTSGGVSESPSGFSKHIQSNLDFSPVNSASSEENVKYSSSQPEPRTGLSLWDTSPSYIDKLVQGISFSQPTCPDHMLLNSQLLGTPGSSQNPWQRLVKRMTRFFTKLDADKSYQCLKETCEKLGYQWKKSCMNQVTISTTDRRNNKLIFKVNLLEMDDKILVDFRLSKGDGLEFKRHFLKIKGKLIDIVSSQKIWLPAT

[6] = molecular target: MAP kinase-activated protein kinase 2 (Homo sapiens) (UniProt P49137); assay: Inhibition of MAPKAP-K2 assessed as activity remaining at 10 uM
[7] = molecular target: Mitogen-activated protein kinase 9 (Homo sapiens) (UniProt P45984); assay: Inhibition of JNK2alpha2 assessed as activity remaining at 10 uM
[8] = molecular target: T4, Interleukin-1 receptor-associated kinase 4 (Homo sapiens) (UniProt Q9NWZ3); assay: Inhibition of IRAK4 assessed as activity remaining at 10 uM
T4 sequence (whole entry): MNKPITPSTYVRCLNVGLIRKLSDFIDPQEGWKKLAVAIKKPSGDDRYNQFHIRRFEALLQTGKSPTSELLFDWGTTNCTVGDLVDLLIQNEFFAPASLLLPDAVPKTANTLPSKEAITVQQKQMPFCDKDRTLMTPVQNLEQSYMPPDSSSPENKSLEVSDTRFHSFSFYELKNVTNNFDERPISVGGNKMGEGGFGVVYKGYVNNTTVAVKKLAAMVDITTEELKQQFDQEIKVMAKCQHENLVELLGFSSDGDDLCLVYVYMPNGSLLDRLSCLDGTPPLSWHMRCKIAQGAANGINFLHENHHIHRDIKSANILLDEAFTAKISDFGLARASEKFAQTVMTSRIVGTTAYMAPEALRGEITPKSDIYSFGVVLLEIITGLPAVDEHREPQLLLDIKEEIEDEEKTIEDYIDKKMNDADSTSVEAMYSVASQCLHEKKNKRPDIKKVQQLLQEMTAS

[9] = molecular target: 3-phosphoinositide-dependent protein kinase 1 (Homo sapiens) (UniProt O15530); assay: Inhibition of PDK1 assessed as activity remaining at 10 uM
3-phosphoinositide-dependent protein kinase 1 (Homo sapiens), sequence (O15530 whole entry, looked up): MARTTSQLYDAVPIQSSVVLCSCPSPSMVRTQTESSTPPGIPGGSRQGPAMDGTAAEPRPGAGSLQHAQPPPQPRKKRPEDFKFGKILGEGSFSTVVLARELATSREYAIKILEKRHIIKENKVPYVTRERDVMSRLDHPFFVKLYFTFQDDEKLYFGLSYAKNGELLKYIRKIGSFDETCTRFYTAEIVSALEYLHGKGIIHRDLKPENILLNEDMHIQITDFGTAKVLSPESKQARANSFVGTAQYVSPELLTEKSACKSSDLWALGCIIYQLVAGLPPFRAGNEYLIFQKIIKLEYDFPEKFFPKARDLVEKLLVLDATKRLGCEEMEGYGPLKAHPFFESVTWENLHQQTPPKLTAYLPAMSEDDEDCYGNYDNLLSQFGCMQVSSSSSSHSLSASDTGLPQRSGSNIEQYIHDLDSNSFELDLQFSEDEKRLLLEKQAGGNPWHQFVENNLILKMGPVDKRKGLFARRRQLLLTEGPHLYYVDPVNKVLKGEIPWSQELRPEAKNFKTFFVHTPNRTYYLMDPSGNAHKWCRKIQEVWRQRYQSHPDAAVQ

Mitogen-activated protein kinase 1 (Homo sapiens), sequence (P28482 whole entry): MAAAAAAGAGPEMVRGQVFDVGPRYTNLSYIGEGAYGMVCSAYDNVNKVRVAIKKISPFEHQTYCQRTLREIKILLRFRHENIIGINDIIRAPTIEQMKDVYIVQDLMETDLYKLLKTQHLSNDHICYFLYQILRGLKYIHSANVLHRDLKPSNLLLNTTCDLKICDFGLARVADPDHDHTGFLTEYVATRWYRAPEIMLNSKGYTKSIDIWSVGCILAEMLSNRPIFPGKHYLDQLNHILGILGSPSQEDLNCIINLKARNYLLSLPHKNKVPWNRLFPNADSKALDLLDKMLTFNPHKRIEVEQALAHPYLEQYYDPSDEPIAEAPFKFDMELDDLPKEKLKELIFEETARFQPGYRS
Mitogen-activated protein kinase 9 (Homo sapiens), sequence (P45984 whole entry, looked up): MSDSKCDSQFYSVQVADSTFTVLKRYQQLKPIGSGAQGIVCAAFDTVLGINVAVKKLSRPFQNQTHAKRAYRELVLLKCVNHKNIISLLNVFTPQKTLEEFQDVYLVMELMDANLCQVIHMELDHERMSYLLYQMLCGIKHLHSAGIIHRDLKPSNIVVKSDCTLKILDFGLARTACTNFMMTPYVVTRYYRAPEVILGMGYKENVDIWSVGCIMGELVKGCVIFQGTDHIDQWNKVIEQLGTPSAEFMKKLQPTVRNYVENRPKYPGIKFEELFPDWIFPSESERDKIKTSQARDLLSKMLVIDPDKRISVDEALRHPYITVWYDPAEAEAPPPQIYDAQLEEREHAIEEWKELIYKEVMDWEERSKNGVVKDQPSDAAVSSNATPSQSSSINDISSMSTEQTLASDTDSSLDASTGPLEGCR
MAP kinase-activated protein kinase 2 (Homo sapiens), sequence (P49137 whole entry, looked up): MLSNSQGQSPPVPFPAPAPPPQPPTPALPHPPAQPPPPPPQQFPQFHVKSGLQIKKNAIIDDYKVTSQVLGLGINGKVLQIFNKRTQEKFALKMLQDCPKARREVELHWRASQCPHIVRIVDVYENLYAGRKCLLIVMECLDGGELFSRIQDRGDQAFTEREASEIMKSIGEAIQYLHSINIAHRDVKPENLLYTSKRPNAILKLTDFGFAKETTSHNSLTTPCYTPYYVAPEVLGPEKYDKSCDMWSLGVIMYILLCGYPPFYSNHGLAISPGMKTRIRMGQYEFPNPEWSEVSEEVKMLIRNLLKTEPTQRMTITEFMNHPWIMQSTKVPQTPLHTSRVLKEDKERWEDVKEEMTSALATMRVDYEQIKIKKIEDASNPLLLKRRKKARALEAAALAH
RAC-alpha serine/threonine-protein kinase (Homo sapiens), sequence (P31749 whole entry): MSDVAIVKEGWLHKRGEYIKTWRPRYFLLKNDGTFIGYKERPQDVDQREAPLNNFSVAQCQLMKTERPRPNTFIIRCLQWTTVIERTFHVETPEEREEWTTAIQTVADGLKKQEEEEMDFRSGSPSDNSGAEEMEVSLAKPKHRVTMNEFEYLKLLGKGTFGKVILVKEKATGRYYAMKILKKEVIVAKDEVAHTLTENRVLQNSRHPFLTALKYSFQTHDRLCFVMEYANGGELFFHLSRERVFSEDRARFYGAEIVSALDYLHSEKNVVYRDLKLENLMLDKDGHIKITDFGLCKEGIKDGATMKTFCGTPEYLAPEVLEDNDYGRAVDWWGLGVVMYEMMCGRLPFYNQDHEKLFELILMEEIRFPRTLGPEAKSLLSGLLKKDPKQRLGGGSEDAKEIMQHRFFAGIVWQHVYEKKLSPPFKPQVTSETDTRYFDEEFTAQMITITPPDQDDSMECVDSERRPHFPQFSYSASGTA

Row | Activity [1] | Activity [2] | Activity [3] | Activity [4] | Activity [5] | Activity [6] | Activity [7] | Activity [8] | Activity [9] | SMILES
1 | 97% | 94% | 86% | 97% | 97% | 93% | 79% | 97% | 91% | O=c1[nH]c2ncc(-c3ccc(-c4nc[nH]n4)cc3)nc2n1CC1CCOCC1
2 | 94% | 91% | 95% | 90% | 93% | 99% | 110% | 87% | 92% | CC(C)(O)c1ccc(-c2cnc3[nH]c(=O)n(CC4CCCCC4)c3n2)cc1
3 | 92% | 75% | 110% | 96% | 88% | 89% | 85% | 112% | 65% | O=c1[nH]c2ncc(-c3ccc4[nH]cnc4c3)nc2n1CC1CCCCC1
